# Measured values taken from US10227324B2 (Shanghai Haiyan Pharmaceutical Technology Co., Ltd., priority 2014, dated 2019).
# Like-named read-outs stand apart in the source and are kept apart here.
# What was measured:
# PI3K-γ kinase (p110γ) = molecular target: T1, PI3K-γ kinase (p110γ) (Homo sapiens, UniProt P48736); assay: Determination of PI3K kinase activity (ADP Transcreener, fluorescence polarization); type: biochemical; settings: Table 1; ATP 10 μM; read-out: PI3K-γ/nM (IC50 of inhibitory activity against PI3K kinase)
# T1 construct: purchased Invitrogen PV4786
# T1 sequence (P48736 whole entry): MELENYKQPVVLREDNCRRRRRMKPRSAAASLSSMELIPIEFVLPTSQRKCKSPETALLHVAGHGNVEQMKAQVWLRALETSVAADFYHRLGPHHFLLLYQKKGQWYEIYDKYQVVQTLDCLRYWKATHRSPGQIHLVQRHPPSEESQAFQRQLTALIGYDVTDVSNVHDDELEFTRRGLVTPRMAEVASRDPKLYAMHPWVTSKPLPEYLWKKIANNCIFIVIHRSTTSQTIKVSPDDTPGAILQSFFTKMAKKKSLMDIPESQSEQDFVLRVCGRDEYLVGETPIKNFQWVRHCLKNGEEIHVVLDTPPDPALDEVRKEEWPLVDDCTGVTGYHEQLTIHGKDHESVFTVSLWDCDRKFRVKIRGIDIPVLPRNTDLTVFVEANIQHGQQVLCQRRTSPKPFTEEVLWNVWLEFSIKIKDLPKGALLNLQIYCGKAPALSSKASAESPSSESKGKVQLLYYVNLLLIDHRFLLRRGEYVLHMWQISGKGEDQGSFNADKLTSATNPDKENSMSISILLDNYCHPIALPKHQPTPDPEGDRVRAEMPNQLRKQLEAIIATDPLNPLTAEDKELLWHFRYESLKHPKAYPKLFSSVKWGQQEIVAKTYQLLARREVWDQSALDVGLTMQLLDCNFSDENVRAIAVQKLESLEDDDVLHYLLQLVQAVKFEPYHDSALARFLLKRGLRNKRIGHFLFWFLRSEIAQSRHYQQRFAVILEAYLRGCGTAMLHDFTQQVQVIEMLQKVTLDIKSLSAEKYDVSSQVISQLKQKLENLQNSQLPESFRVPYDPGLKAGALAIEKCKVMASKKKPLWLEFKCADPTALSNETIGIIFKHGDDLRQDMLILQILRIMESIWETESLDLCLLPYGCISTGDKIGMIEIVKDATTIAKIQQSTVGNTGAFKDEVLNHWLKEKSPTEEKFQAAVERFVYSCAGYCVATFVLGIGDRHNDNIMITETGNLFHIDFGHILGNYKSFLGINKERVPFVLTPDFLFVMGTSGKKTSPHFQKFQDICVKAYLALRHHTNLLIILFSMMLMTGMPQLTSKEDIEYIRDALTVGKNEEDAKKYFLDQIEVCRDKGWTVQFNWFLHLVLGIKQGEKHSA
# Outline: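 Each 25 μL reaction held PI3K enzyme (p110α/p85α 3 ng, p110β/p85α 60 ng, p110δ/p85α 90 ng, or p110γ 100 ng), 10 μM ATP, 30 μM PIP2:PS and 2% DMSO, incubated 1 h at 25 °C. Compounds were tested in duplicate across a 3-fold series, 0.00046–1 μM as prepared. ADP was detected by Transcreener fluorescence polarization, quantified against an ADP/ATP standard curve, and IC50 fitted.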
# NIH3T3 cells = assay: Cytotoxicity by MTT assay, NIH3T3; type: cell-based; settings: cytotoxicity class, read-out: NIH3T3 cell (IC50/nM)
# Experimental: The MTT assay procedure and steps were carried out as well known to those skilled in the art, and all the reagents used in the methods were commercially available.
# The cells in logarithmic growth phase were digested with 0.25% EDTA trypsin (Gibco, 25200-056) and resuspended in fresh medium. 90 μL of the cell suspension was inoculated into a 96-well cell culture plate (BD Faclon 353072) with a suitable cell density and cultured at 37° C. under 5% CO2. After the cells adhered, 10 μL of the test compound at different concentrations (0.0046-10 μM, 8 concentration points) was added and incubated for another 72 h. 10 μL of MTT (5 mg/mL PBS solution) (Sigma, M5655) was added to react for 4 h. The absorbance at 492 nm was measured by using Thermo Scientific Multiskan MK3 microplate reader and IC50 was calculated using XLFIT 5.0 software (UK IDBS).
# [1] = molecular target: T2, PI3K-β kinase (p110β/p85α) (Homo sapiens, UniProt P42338); assay: Determination of PI3K kinase activity (ADP Transcreener, fluorescence polarization); type: biochemical; settings: Table 1; ATP 10 μM; read-out: PI3K-β/nM (IC50 of inhibitory activity against PI3K kinase)
# T2 construct: purchased Millipore 14-603
# T2 sequence (P42338 whole entry): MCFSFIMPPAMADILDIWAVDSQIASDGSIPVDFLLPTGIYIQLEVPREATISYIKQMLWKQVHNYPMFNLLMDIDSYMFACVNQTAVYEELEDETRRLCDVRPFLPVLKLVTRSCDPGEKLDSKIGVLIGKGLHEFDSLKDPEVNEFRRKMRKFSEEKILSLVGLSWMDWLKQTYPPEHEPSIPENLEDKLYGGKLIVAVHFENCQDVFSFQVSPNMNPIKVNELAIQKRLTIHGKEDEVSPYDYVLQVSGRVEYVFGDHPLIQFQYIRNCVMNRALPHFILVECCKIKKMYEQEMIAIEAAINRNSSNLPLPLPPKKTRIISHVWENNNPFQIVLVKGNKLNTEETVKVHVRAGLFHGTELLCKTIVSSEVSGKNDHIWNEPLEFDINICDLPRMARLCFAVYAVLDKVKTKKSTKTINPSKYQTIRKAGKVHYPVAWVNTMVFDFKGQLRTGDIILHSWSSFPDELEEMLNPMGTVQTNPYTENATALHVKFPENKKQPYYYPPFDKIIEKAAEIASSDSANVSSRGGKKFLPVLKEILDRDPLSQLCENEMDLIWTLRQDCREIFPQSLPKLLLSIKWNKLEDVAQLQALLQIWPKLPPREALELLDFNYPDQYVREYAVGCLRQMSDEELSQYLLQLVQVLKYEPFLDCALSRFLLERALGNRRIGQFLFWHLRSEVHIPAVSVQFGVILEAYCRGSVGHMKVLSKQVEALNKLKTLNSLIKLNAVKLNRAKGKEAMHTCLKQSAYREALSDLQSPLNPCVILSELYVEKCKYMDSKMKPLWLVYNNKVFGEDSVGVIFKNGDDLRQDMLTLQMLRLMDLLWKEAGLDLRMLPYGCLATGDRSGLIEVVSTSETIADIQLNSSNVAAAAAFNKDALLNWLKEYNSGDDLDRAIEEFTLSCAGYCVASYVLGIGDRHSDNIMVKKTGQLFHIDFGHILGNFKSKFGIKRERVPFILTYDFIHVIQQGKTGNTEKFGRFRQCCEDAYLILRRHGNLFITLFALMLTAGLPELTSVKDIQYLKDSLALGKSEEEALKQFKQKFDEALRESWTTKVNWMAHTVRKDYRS
# T2 sequence (P27986 whole entry partner): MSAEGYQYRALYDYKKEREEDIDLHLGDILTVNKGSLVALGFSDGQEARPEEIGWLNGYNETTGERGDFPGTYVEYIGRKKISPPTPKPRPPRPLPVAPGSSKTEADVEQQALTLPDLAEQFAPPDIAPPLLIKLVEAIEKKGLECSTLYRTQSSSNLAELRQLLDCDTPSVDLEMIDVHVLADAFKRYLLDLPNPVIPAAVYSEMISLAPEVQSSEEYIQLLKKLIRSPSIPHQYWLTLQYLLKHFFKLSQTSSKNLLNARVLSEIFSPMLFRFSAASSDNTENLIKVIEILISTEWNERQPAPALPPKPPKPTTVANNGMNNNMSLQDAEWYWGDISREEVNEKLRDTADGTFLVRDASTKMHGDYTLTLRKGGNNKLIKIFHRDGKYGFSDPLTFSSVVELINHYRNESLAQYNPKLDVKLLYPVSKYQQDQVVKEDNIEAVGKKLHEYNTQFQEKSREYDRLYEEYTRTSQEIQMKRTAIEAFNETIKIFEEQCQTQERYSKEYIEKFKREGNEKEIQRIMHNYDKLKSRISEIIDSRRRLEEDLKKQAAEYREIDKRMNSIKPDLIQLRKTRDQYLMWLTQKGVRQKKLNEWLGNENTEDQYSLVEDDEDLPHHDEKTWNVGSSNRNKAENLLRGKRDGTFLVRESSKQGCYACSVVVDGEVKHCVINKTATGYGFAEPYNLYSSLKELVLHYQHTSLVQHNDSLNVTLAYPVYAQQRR
# [2] = molecular target: T3, PI3K-δ kinase (p110δ/p85α) (Homo sapiens, UniProt O00329); assay: as above; type: biochemical; settings: Table 1; ATP 10 μM; read-out: PI3K-δ/nM (IC50 of inhibitory activity against PI3K kinase)
# T3 construct: purchased Millipore 14-604M
# T3 sequence (O00329 whole entry): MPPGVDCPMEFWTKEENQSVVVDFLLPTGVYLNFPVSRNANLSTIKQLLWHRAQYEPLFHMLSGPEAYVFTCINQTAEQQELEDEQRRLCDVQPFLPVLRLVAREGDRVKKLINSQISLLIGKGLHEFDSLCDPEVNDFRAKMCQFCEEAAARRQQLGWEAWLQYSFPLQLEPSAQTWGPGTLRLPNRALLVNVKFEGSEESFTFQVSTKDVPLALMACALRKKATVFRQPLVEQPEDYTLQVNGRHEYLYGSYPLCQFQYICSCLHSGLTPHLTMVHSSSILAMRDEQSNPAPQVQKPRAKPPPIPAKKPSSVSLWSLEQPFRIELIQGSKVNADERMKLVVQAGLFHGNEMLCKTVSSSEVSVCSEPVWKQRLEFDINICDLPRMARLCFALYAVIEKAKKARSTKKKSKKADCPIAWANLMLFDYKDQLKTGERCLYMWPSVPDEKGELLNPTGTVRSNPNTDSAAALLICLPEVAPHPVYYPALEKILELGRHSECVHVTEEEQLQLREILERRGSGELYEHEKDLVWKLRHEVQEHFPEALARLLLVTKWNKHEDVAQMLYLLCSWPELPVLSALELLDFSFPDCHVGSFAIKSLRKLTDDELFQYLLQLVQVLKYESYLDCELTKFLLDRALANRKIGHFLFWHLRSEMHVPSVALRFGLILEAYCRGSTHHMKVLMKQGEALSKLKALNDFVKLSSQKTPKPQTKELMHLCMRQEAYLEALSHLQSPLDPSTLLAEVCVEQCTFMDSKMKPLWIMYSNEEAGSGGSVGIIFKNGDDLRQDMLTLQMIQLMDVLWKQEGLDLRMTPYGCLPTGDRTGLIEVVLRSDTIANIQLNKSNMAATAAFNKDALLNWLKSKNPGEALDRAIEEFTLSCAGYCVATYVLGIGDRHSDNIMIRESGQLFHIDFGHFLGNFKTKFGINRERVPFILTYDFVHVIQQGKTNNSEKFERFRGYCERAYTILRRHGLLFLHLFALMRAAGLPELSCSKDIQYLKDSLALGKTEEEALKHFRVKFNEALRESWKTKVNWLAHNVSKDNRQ
# T3 sequence (P27986 whole entry partner): as the sequence (P27986 whole entry partner) above
# [3] = Metabolism stability assay in liver microsomes; type: in vitro ADME, mouse; settings: liver microsomal metabolism in mice
# Experimental: Buffer A: 1 L solution of 100 mM potassium dihydrogen phosphate containing 1 mM EDTA (Sigma, V900157-100G) was prepared. Buffer B: 1 L solution of 100 mM dipotassium hydrogen phosphate containing 1 mM EDTA was prepared. Buffer C: 700 mL of buffer B was taken out and titrated with buffer A to pH 7.4.
# 2.1 10 μl of 10 mM compound to be tested and 10 μl of 10 mM ketanserin were taken out and 190 μl of pure acetonitrile was added to each of them to prepare 500 μM compound to be tested and ketanserin, respectively.
# 2.2 20 μl (20 mg/mL) of liver microsomes (XENOTECH, H0610) stock solution was added to 513.4 μl of buffer C on wet ice. 0.75 mg/mL liver microsomal solution was obtained.
# 2.3 1.5 μl of each of the above-mentioned compound to be tested and ketanserin solution was added to 498.5 μl of liver microsomal solution (0.7 5 mg/mL) respectively on wet ice. 1.5 μM mixed solution of compound to be tested and 1.5 μM mixed solution of ketanserin were obtained.
# 2.4 At the time points 0, 5, 15, 30, 45, and 60 min, 30 μl of the mixed solution of compound to be tested and 30 μl of the mixed solution of ketanserin were dispensed into the reaction plate on wet ice, respectively.
# 2.5 5 mg reduced coenzyme II (Roche, 10621706001) was weighed and dissolved in 1 mL of buffer C. 6 mM reduced coenzyme II solution was obtained. The reduced coenzyme II solution was dispensed into the reaction plate.
# 2.6 Imipramine was dissolved to give a 10 mM solution. 10 μl imipramine solution was added to 100 mL of blank acetonitrile to generate the internal reference.
# 2.7 At 0 min, 135 μL of iced acetonitrile (Merck, UN 1648) containing the internal reference was added to each well and then 15 μL of buffer C was added.
# 2.8 The reaction plate was placed into a 37° C. water bath incubator for 5 min. In the reaction plate, 15 μL of reduced coenzyme II solution was added to each well to initiate the reaction, and the time keeping was started. At the time points of 5, 15, 30, 45, and 60 min, 135 μL of iced acetonitrile containing the internal reference was added to each well to terminate the reaction.
# 2.9 The reaction plate was sealed with an aluminum film, placed on a vibration mixer and shaken at 500 rpm for 5 min. The plate was then centrifuged in a centrifuge at 3750 rp for 15 min.
# 2.10 The sample was diluted with pure water in accordance with the ratio of 1:1 and detected by LC/MS.
# Half-life: 0.693/K (the slope by plotting based on the incubation time and logarithm of the concentration value)
# Clearance ratio: (0.693/half-life)*(1/protein concentration (0.5 mg/mL))*(proportional factor)
# Wherein, the K value and the proportional factor were calculated by those skilled in the art according to the methods described in the prior art and contained in the instructions of the liver microsome product.
# [4] = molecular target: T4, PI3K-α kinase (p110α/p85α) (Homo sapiens, UniProt P42336); assay: Determination of PI3K kinase activity (ADP Transcreener, fluorescence polarization); type: biochemical; settings: ATP 10 μM
# T4 construct: purchased Invitrogen PV4788
# T4 sequence (P42336 whole entry): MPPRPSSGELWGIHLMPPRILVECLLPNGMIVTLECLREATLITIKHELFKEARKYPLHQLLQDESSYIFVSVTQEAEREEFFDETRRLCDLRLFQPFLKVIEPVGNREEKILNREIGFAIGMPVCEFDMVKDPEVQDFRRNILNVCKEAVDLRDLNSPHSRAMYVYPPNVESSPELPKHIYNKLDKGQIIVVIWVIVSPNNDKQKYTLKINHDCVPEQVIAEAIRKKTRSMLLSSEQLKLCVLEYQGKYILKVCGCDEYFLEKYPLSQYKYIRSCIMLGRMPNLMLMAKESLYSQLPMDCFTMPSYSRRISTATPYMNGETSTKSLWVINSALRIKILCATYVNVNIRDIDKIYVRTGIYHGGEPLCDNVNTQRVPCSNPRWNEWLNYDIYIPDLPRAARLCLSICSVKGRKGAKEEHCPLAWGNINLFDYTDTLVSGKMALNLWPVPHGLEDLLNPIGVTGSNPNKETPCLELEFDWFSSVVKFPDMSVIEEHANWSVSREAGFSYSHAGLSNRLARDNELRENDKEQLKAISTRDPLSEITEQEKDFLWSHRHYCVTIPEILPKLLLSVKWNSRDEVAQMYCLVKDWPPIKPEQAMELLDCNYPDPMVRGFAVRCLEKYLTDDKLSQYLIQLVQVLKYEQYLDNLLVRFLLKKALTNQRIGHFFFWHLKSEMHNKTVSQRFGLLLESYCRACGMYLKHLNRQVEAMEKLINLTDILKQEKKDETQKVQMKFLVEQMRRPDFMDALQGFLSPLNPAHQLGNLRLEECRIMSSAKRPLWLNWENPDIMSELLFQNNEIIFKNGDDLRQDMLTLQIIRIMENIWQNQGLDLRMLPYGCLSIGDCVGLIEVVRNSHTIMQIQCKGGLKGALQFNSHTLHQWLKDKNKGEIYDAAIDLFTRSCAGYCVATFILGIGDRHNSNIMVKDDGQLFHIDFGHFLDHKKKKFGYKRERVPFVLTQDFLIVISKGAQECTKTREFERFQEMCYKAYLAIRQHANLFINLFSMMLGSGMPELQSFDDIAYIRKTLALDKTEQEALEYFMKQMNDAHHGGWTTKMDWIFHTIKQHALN
# T4 sequence (P27986 whole entry partner): as the sequence (P27986 whole entry partner) above
# T47D cells = assay: Cell inhibitory activity detected by MTT assay, T47D; type: cell-based; settings: 72 h, read-out: T47D cell (IC50/nM), cell growth inhibition
# [5] = test system: Akt phosphorylation (Ser473-p-Akt) in PC-3 cells; assay: Inhibition of p-Akt phosphorylation level in PC-3 cells (cell level fluorescence imaging); type: cell-based; settings: Akt phosphorylation in PC-3 cells, 2 hours incubation; read-out: PC-3 cell (IC50/nM)
# Experimental: This experiment was performed by cell level fluorescence image processing method.
# Triton X-100: 10% aqueous Triton X-100 solution (Sigma T8787-100 mL) was prepared, stored at 4° C. and diluted by 1:100 to give 0.1% Triton X-100 aqueous solution for use in the experiment.
# Prodium Iodide (PI): 1 mg/mL (1.5 mM) PI (Sigma P4170) storage solution was prepared with PBS and stored at −25° C. in the dark. For use, the PI storage solution was diluted with PBS by 1:1000 to give a 1.5 μM solution and used in dark.
# PC-3 cells in logarithmic growth phase were digested with 0.25% EDTA trypsin. 3000 cells/90 μL were seeded in a 96-well plate (BD 356692) and cultured at 37° C. and 5% CO2. After the cells adhered, 10 μL of the compound to be tested which was gradiently diluted 3 times (0.0046 to 10 μM, 8 concentration points, in duplicate) was added and incubated for 2 hours, followed by addition of 100 μL of 4% paraformaldehyde (DINGGUO AR-0211) and incubated at room temperature for 45 minutes. Then 100 μL of 0.1% Triton X-100 solution was added and incubated for another 30 minutes.
# Triton X-100 solution was removed and the cells were rinsed with 200 μl of PBS twice (300 rpm vibration for 1 minute). The blocking solution (1% BSA solution in PBS) (Genview FA016-100G) was added and incubated at room temperature for 2 hours. The plate was rinsed with PBS once (300 rpm, 1 min) and 30 μL of Ser473-p-Akt antibody (cell signaling 4060L) diluted with 0.1% BSA was added and incubated overnight at 4° C. Ser473-p-Akt antibody was removed and the plate was rinsed with PBS twice (300 rpm, 1 minute). 35 μL of Alexa Flour 488 donkey anti-rabbit IgG (Invitrogen A21206) was added and incubated at room temperature for 1.5 hours. The plate was rinsed with PBS twice (300 rpm, 1 minute) and 35 μL of 1.5 μM PI was added and incubated at room temperature for 0.5 h. The fluorescence intensity was measured with Acumen eX3 (TTP LabTech).
# 10 μM BEZ235 (Selleck S1009) treatment group was negative control and DMSO treatment group was positive control. Inhibition ratio %=[1−(the mean value of the fluorescence intensity of the compound to be tested−the mean value of the fluorescence intensity of the negative control group)/(the mean value of the fluorescence intensity of the positive control group−the mean value of the fluorescence intensity of the negative control group)]×100%
IC50 (PI3K-γ kinase (p110γ)),IC50 [1],IC50 [2],Clearance ratio (mL/min/kg) mouse [3],"IC50 ([4]; Table 2, read-out: PI3K-α/nM (IC50 of inhibitory activity against PI3K-α kinase))",IC50 (T47D cells),IC50 [5],"IC50 ([4]; Table 1, read-out: PI3K-α/nM (IC50 of inhibitory activity against PI3K kinase))",SMILES,"IC50 (NIH3T3 cells; Mus musculus, NIH3T3, 72 h)",IC50 (NIH3T3 cells; 72 h)
843 nM,832 nM,214 nM,6337.31 mL/min/kg,–,–,–,–,CC(C)(c1cc(-c2cnc(N)cc2C(F)(F)F)nc(N2CCOCC2)n1)S(=O)(=O)c1ccccc1 [Compound S-21],1000 to 3000 nM,–
–,–,–,–,39 nM,449 nM,39 nM,–,"CC(C)(O)c1cc(-c2cnc(N)cc2C(F)(F)F)nc(N2CCOCC2)n1 [Compound S-50, 2-(6-(6-amino-4-(trifluoromethyl)pyridin-3-yl)-2-morpholin-4-yl)propan-2-ol]",–,1000 to 3000 nM
813 nM,721 nM,235 nM,7163.43 mL/min/kg,–,–,–,37 nM,Nc1cc(C(F)(F)F)c(-c2cc(C3(S(=O)(=O)c4ccc(F)cc4)CC3)nc(N3CCOCC3)n2)cn1 [Compound S-59],1000 to 3000 nM,–
